One test deals with T1, Protein skinhead-1 (Caenorhabditis elegans, UniProt P34707).
T1 sequence (P34707 whole entry): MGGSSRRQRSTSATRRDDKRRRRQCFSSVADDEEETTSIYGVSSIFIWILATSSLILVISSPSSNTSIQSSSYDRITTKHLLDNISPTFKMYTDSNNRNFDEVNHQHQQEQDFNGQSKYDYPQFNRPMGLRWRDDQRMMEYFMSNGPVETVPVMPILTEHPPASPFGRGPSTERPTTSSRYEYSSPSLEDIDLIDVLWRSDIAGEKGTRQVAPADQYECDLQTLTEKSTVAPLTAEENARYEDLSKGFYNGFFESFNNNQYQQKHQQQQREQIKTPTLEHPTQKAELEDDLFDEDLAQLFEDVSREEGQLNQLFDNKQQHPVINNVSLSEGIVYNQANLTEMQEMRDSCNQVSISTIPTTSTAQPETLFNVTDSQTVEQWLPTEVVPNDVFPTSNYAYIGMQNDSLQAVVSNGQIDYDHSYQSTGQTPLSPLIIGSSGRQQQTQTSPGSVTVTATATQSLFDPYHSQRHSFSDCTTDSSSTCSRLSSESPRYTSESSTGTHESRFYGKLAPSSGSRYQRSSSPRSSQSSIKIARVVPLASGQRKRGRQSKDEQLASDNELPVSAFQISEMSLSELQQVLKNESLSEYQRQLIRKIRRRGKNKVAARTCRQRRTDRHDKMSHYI
In kind it is functional.

A short description of test [1]: Luminescence Cell-Based Dose Confirmation HTS to Identify Activators of 5'UTR Stem-Loop Driven Alpha-Synuclein mRNA Translation in H4 Neuroglioblastoma Cells. [Related pubchem assays: 1829 (Project Summary), 1814 (Primary HTS)]. In kind it is functional.
Test [2] addresses T2, Heat shock factor protein 1 (Mus musculus, UniProt P38532).
T2 sequence (P38532 whole entry): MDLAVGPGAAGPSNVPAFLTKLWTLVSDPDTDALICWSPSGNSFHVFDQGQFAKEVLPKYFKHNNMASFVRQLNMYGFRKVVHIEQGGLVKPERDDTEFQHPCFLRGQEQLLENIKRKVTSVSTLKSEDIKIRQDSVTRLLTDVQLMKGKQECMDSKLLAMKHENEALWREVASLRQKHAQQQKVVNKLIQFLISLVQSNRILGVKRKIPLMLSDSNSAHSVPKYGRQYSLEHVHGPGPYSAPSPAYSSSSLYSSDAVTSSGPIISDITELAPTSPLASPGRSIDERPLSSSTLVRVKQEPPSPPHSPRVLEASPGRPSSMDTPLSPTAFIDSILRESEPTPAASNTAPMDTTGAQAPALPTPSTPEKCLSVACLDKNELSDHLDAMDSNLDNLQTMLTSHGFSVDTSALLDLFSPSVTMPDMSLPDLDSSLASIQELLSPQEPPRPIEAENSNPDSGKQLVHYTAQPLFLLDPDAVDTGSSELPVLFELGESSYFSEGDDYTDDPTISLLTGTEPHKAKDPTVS
Nature of the test: inhibition of MG132-induced HSE-luciferase signal, confirmation, cell-based, NIH3T3, luminescence, dose retest (AID 2382).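 Also: NIH3T3 fibroblasts with HSF1-driven luciferase reporter stressed by proteasome inhibitor MG132; luminescence from HSF1-driven luciferase expression after 8 hours of MG132 stress.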 In kind it is functional.

A short description of test [3]: Luminescence Cell-Based Dose Response HTS to Identify Activators of Luciferase Translation or Activity in H4 […] Cells. [Related pubchem assays: 1829 (Project Summary), 1814 (Primary HTS)]. Format: functional.
A further test deals with H4. Briefly: Luminescence Cell-Based Dose Response HTS to Identify Activators of 5'UTR Stem-Loop Driven Prion Protein mRNA Translation in H4 Neuroglioblastoma Cells. [Related pubchem assays: 1829 (Project Summary), 1814 (Primary HTS)]. In kind it is functional. The note with it: Homo sapiens.
Test [4] addresses Induced myeloid leukemia cell differentiation protein Mcl-1 (Homo sapiens, UniProt Q07820). In kind it is functional.
For test [5], the target named is T3, Rac GTPase-activating protein 1 (Homo sapiens, UniProt Q9H0H5).
T3 sequence (Q9H0H5 whole entry): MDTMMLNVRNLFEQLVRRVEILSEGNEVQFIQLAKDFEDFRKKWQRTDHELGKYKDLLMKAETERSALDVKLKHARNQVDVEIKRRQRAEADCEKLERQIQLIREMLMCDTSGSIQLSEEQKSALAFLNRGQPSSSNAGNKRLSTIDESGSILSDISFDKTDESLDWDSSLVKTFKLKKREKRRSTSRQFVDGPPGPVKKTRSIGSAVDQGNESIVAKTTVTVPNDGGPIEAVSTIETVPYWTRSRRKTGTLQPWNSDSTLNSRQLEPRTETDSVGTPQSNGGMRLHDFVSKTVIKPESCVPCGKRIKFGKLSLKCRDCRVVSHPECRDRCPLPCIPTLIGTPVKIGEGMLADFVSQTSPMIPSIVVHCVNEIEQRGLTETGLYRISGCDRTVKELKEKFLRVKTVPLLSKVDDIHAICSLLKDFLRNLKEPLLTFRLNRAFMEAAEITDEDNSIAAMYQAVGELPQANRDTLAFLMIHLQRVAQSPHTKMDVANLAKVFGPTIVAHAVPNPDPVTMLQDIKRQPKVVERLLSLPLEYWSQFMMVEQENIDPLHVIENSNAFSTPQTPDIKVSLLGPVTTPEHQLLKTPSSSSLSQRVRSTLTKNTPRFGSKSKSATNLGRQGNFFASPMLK
Nature of the test: MgcRacGAP GTPase-activating activity inhibitors, confirmation, biochemical, ADP Hunter fluorescence, primary and confirmatory (AID 624330). Format: functional.

Test [6] is described as follows: inhibitors of firefly luciferase expression or activity, dose response, H4 neuroglioma cells, luminescence (AID 1990). In kind it is functional, cell-based.
For another test, the system named is HT-1080. Briefly: cytotoxicity in HT1080 fibrosarcoma cells, cell-based, fluorescence readout (AID 620). The note with it: Homo sapiens. In kind it is functional.
Test [7] in a line: Luminescence Cell-Based Dose Response HTS to Identify Inhibitors of 5'UTR Stem-Loop Driven Prion Protein mRNA Translation in H4 Neuroglioblastoma Cells. [Related pubchem assays: 1827 (Project Summary), 1813 (Primary HTS)]. In kind it is functional.
Test [8] can be described thus: inhibitors of SNCA 5'UTR-driven reporter translation, confirmation, H4 neuroglioma cells, luminescence (AID 1988). In kind it is functional, cell-based.
In test [9] the target is Luciferin 4-monooxygenase (Photinus pyralis, UniProt P08659). Nature of the test: Counter Screen for Luciferase-based Assay Positives. [Related pubchem assays: 620, 618, 411 ].
Luciferin 4-monooxygenase, sequence (P08659 whole entry): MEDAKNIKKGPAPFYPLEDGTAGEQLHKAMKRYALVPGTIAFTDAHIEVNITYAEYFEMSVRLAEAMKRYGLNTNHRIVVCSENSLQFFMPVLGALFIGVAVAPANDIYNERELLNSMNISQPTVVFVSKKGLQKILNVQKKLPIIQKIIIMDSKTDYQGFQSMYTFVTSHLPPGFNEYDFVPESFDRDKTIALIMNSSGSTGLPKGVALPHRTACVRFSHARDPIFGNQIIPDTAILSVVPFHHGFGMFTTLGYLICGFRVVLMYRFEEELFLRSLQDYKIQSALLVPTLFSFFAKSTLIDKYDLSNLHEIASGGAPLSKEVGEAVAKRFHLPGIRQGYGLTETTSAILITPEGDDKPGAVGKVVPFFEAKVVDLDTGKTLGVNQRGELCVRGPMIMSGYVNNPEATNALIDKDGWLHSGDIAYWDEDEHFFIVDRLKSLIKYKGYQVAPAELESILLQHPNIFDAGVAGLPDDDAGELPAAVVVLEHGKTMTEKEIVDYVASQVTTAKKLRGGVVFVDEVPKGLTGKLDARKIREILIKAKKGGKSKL
Test [10] addresses T4, Histone-lysine N-methyltransferase NSD2 (Homo sapiens, UniProt O96028).
T4 sequence (O96028 whole entry): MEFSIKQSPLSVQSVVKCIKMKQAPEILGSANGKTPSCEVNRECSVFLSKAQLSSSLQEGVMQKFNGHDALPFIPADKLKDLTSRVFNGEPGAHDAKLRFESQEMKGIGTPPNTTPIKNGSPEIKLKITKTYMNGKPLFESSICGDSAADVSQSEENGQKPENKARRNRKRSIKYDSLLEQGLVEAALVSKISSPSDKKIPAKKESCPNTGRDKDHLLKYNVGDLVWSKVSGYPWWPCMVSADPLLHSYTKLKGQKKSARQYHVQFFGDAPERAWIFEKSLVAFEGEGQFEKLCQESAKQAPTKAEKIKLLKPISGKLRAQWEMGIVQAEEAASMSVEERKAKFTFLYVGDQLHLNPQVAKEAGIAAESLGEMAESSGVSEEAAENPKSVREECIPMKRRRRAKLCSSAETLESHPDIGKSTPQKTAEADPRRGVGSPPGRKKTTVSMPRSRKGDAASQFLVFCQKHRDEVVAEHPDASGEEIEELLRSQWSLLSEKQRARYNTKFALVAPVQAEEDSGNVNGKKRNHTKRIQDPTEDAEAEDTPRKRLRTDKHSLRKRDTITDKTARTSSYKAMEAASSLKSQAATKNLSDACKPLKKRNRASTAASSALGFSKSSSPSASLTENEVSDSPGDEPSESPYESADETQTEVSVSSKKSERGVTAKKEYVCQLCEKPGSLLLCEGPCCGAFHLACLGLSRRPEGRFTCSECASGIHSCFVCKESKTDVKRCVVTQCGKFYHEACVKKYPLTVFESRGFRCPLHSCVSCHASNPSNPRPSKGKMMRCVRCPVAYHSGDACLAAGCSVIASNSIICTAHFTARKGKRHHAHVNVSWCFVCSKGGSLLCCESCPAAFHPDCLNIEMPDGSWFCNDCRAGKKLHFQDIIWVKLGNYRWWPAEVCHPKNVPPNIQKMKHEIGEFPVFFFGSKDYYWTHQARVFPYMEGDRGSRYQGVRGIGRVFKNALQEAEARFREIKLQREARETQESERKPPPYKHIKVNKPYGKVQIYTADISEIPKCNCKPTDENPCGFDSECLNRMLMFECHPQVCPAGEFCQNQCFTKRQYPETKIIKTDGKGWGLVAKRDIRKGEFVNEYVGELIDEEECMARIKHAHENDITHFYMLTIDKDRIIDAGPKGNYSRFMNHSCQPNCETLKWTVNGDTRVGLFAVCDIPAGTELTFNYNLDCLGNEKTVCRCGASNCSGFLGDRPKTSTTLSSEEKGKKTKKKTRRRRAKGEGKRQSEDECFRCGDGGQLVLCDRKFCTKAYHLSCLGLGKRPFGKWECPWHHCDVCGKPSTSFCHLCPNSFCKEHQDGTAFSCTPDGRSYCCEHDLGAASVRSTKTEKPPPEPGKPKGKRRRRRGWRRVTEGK
In kind it is biochemical.

The source made the active and inactive calls. Rule as the data show it, for most assays here: actives have a measured EC50 and inactives only a lower limit.

The source of these data is ChEMBL document CHEMBL1201862, “PubChem BioAssay data set” (2004).

Induced myeloid leukemia cell differentiation protein Mcl-1, sequence (Q07820 whole entry): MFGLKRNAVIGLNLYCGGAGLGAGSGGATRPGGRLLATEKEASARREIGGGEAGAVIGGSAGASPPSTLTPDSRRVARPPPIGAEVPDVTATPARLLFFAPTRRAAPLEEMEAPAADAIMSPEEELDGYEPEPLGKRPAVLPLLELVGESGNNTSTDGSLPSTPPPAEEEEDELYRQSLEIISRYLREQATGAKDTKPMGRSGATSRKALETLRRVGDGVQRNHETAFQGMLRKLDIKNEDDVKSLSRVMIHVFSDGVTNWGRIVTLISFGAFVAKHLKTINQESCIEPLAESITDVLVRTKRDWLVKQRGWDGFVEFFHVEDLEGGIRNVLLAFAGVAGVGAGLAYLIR

By IC50 is commonly meant the concentration at which inhibition is half-maximal. Usually EC50 stands for the concentration giving half of the maximal effect. Regarding `Cc1ccc2c(c1)c(C)c(C)n2CC(O)Cn1nnc2ccccc21` (stereo not drawn), at Protein skinhead-1, the IC50 was > 100 µM (inactive). The EC50 was 20.9 µM (active) in test [1], > 195 µM (not active) in test [2], 63.4 µM (active) in test [3] and 22.3 µM (active) with H4.

Consider `Cc1cccc(-n2nc3c(c2NC(=O)C2CC2)CS(=O)(=O)C3)c1C`, for which the IC50 at Protein skinhead-1 is > 100 µM (inactive). Further, the EC50 (in test [1]; in test [3]; with H4) was > 120 µM (not active) in each case.

Turning to `Cc1ccc(N2CC(C(=O)Nc3ccc(N(C)C)cc3)CC2=O)cc1C` (stereo not drawn), the IC50 in test [4] was 3.29 µM (not active); in [5] it was 54.2 µM (active).

With `CO/C(O)=C1\CSC\C1=N\c1ccccc1NC(=O)c1ccccc1C(=O)O`, the EC50 is > 120 µM (not active) in test [1], > 120 µM (not active) in test [3] and 119 µM (active) in the test with H4.

In the case of `O=C(O)CCSc1nnc(-c2ccc3c(c2)OCO3)o1`, the EC50 was 8.07 µM (active) in [6]; > 50 µM (not active) in the test on HT-1080; > 120 µM (not active) in test [7]; 10.6 µM (active) in test [8]; 27.7 µM (active) in test [9]; 3.01 µM (active) in [2].

Consider `CCCCN1C(=O)NC(=O)/C(=C(/C)NNC(=O)Nc2ccccc2)C1=O`, for which the results for the 50% effective concentration (EC50) (in [1]; in [3]; in the test on H4) were > 120 µM (not active), 14.3 µM (active) and > 120 µM (not active), respectively.

As a reminder, the AC50 is the concentration at which the activity in the assay is half-maximal. As to `CCCCN(CC)CCNC(=O)c1cc2c(-c3ccccc3F)nn(C)c2s1`, in test [10], the AC50 was > 20 µM (inactive). The EC50 was 8.55 µM (active) in test [1], > 120 µM (not active) in test [3] and > 120 µM (not active) with H4.

Consider `CCOc1ccc(-c2nnc(-c3ccco3)o2)cc1`, for which the IC50 at Protein skinhead-1 was 28.9 µM (active). Moreover, the EC50 in the test with HT-1080 was > 50 µM (not active); in test [9] it was < 0.2 µM (active).

As to `O=C(Nc1ccc2oc(-c3ccccc3)nc2c1)c1cccs1`, the EC50 was < 0.1 µM (active) in test [1], 0.131 µM (active) in test [3] and > 120 µM (not active) in the test on H4.
